Where a name gives a salt, the structure may show the parent alone.
What was measured:
CCR4 = biological target: T1, CCR4 (Homo sapiens, UniProt P51679); assay: [35S]-GTPγS SPA binding assay for CCR4 antagonist activity; assay type: biochemical; details: CCR4 expressing CHO membranes; human MDC at EC80; [35S]-GTPγS competition
T1 construct: expressed in transfected cells; host or cells: CHO cell membranes
T1 sequence (P51679 1-360): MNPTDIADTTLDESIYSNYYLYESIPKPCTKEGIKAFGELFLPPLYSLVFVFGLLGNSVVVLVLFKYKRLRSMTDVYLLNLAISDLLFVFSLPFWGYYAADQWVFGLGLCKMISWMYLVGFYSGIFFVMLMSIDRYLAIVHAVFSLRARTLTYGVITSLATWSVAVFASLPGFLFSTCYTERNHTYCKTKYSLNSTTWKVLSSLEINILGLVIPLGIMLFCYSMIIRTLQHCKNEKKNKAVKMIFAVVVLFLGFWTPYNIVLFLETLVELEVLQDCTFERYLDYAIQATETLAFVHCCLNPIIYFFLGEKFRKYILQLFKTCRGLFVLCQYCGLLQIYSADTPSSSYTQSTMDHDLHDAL
Method: [35S]-GTPγS SPA Binding Assays for CCR4 Antagonist Activity
Antagonist potency was determined by a radioligand [35S]-GTPγS competition assay. Briefly, CCR4 expressing CHO membranes were homogenised by passing through a 23G needle. These membranes were then adhered to WGA-coated Leadseeker SPA beads in assay buffer (20 mM HEPES, 10 mM MgCl2, 100 mM NaCl, 0.05% BSA, 40 ug/ml Saponin and pH adjusted to 7.4 using KOH 5M) to generate a 3 μg/well final assay concentration (FAC) membrane and 250 μg/well FAC bead, solution.
The bead/membrane/[35S]-GTPγS/Agonist suspension was dispensed into white Greiner polypropylene 384-well plates (45 μl/well), containing 0.5 μl of compound. […] Plates were then read on a Viewlux instrument and luminescence was then plotted as a percentage of the maximum inhibitional response elicited by an IC100 of a standard antagonist.

CD4+ CCR4+ T cells = assay: Chemokine stimulated increases in cellular F-actin content; assay type: cell-based; details: Homo sapiens, T-cell, 0.5 h; PBMC from normal volunteers; antagonist 30 min at 37° C. before agonist for 15 sec; F-actin content by flow cytometry; read-out: pA2 (converted)
Procedure, shortened: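 Human PBMC from citrated volunteer blood, stained for CD4 and CCR4, were pre-incubated with antagonist or vehicle (0.1% DMSO) for 30 min at 37 °C, then stimulated with agonist for 15 s and formaldehyde-fixed. F-actin was stained with phalloidin and read by flow cytometry as CD4+CCR4+ MFI relative to CD4+CCR4− cells.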

Row | SMILES | IC50 (CCR4) [nM] | Kb (CD4+ CCR4+ T cells) [nM]
1 | CN[C@H](C)C(=O)NCc1cccc(Cn2nc(NS(=O)(=O)c3ccc(Cl)s3)c3c(O)cccc32)c1 [Example 71, N^1-({3-[(3-{[(5-Chloro-2-thienyl)sulfonyl]amino}-4-hydroxy-1H-indazol-1-yl)methyl]phenyl}methyl)-N^2-methyl-D-alaninamide formic acid salt] | 3.98 to 15.8 | ≤ 126
2 | COc1cccc2c1c(NS(=O)(=O)c1ccc(Cl)s1)nn2Cc1cccc(CNC(=O)[C@]2(C)CCCN2)c1 [Example 27, N-[(3-{[3-{[(5-chloro-2-thienyl)sulfonyl]amino}-4-(methyloxy)-1H-indazol-1-yl]methyl}phenyl)methyl]-2-methyl-L-prolinamide trifluoroacetate] | 3.98 to 15.8 | ≤ 126
3 | CN[C@@H](C)C(=O)NCc1cccc(Cn2nc(NS(=O)(=O)c3ccc(Cl)s3)c3c(OC)cccc32)c1 [Example 17, N^1-[(3-{[3-{[(5-chloro-2-thienyl)sulfonyl]amino}-4-(methyloxy)-1H-indazol-1-yl]methyl}phenyl)methyl]-N^2-methyl-L-alaninamide trifluoroacetate] | 3.98 to 15.8 | ≤ 126
4 | COc1cccc2c1c(NS(=O)(=O)c1ccc(Cl)s1)nn2Cc1cccc(CNC(=O)C(C)(C)O)c1 [Example 57, N-[(3-{[3-{[(5-Chloro-2-thienyl)sulfonyl]amino}-4-(methyloxy)-1H-indazol-1-yl]methyl}phenyl)methyl]-2-hydroxy-2-methylpropanamide] | 3.98 to 15.8 | ≤ 126
5 | COc1cccc2c1c(NS(=O)(=O)c1ccc(Cl)s1)nn2Cc1cccc(CNC(=O)C2CNCCN2)c1 (stereo not shown) [Example 16, N-[(3-{[3-{[(5-chloro-2-thienyl)sulfonyl]amino}-4-(methyloxy)-1H-indazol-1-yl]methyl}phenyl)methyl]-2-piperazinecarboxamide hydrochloride] | 3.98 to 15.8 | ≤ 126
6 | COc1cccc2c1c(NS(=O)(=O)c1ccc(Cl)s1)nn2Cc1cccc(CNC(=O)[C@@H]2COCCN2)c1 [Example 8, (3S)—N-[(3-{[3-{[(5-Chloro-2-thienyl)sulfonyl]amino}-4-(methyloxy)-1H-indazol-1-yl]methyl}phenyl)methyl]-3-morpholinecarboxamide hydrochloride] | 3.98 to 15.8 | ≤ 126
7 | COc1cccc2c1c(NS(=O)(=O)c1ccc(Cl)s1)nn2Cc1cccc(CNC(=O)C2CCOC2)c1 (stereo not shown) [Example 35, N-[(3-{[3-{[(5-Chloro-2-thienyl)sulfonyl]amino}-4-(methyloxy)-1H-indazol-1-yl]methyl}phenyl)methyl]tetrahydro-3-furancarboxamide] | 3.98 to 15.8 | ≤ 126
8 | COc1cccc2c1c(NS(=O)(=O)c1ccc(Cl)s1)nn2Cc1cccc(CNC(=O)[C@@H](N)Cc2cnc[nH]2)c1 [Example 44, N-[(3-{[3-{[(5-Chloro-2-thienyl)sulfonyl]amino}-4-(methyloxy)-1H-indazol-1-yl]methyl}phenyl)methyl]-L-histidinamide] | 3.98 to 15.8 | ≤ 126
9 | COc1cccc2c1c(NS(=O)(=O)c1ccc(Cl)s1)nn2Cc1cccc(CNC(=O)C(C)C)c1 [Example 3, N-[(3-{[3-{[(5-chloro-2-thienyl)sulfonyl]amino}-4-(methyloxy)-1H-indazol-1-yl]methyl}phenyl)methyl]-2-methylpropanamide] | 3.98 to 15.8 | ≤ 126
10 | COc1cccc2c1c(NS(=O)(=O)c1ccc(Cl)s1)nn2Cc1cccc(CNC(=O)CC(N)=O)c1 [Example 21, N-[(3-{[3-{[(5-chloro-2-thienyl)sulfonyl]amino}-4-(methyloxy)-1H-indazol-1-yl]methyl}phenyl)methyl]propanediamide] | 3.98 to 15.8 | ≤ 126
11 | CN[C@H](C)C(=O)NCc1cccc(Cn2nc(NS(=O)(=O)c3ccc(Cl)s3)c3c(OC)cccc32)c1 [Example 10, N^1-[(3-{[3-{[(5-chloro-2-thienyl)sulfonyl]amino}-4-(methyloxy)-1H-indazol-1-yl]methyl}phenyl)methyl]-N^2-methyl-D-alaninamide hydrochloride] | 3.98 to 15.8 | ≤ 126
12 | CCC(=O)NCc1cccc(Cn2nc(NS(=O)(=O)c3ccc(Cl)s3)c3c(OC)cccc32)c1 [Example 2, N-[(3-{[3-{[(5-chloro-2-thienyl)sulfonyl]amino}-4-(methyloxy)-1H-indazol-1-yl]methyl}phenyl)methyl]propanamide] | 3.98 to 15.8 | ≤ 126
13 | COc1cccc2c1c(NS(=O)(=O)c1ccc(Cl)s1)nn2Cc1cccc(CNC(=O)[C@H]2CC(F)(F)CN2)c1 [Example 55, N-[(3-{[3-{[(5-Chloro-2-thienyl)sulfonyl]amino}-4-(methyloxy)-1H-indazol-1-yl]methyl}phenyl)methyl]-4,4-difluoro-D-prolinamide trifluoroacetate] | 3.98 to 15.8 | ≤ 126
14 | COc1cccc2c1c(NS(=O)(=O)c1ccc(Cl)s1)nn2Cc1cccc(CNC(=O)[C@@H]2C[C@H](F)CN2)c1 [Example 28, (4S)—N-[(3-{[3-{[(5-chloro-2-thienyl)sulfonyl]amino}-4-(methyloxy)-1H-indazol-1-yl]methyl}phenyl)methyl]-4-fluoro-L-prolinamide trifluoroacetate] | 3.98 to 15.8 | ≤ 126
15 | NC(=O)c1cccc(Cn2nc(NS(=O)(=O)c3ccc(Cl)s3)c3c(O)cccc32)c1 [Example 70, 3-[(3-{[(5-Chloro-2-thienyl)sulfonyl]amino}-4-hydroxy-1H-indazol-1-yl)methyl]benzamide] | 3.98 to 15.8 | ≤ 126
16 | COc1cccc2c1c(NS(=O)(=O)c1ccc(Cl)s1)nn2Cc1cccc(CNC(=O)c2cn[nH]c2)c1 [Example 33, N-[(3-{[3-{[(5-Chloro-2-thienyl)sulfonyl]amino}-4-(methyloxy)-1H-indazol-1-yl]methyl}phenyl)methyl]-1H-pyrazole-4-carboxamide] | 3.98 to 15.8 | ≤ 126
17 | COc1cccc2c1c(NS(=O)(=O)c1ccc(Cl)s1)nn2Cc1cccc(CNC(=O)[C@H]2COCCN2)c1 [Example 7, (3R)—N-[(3-{[3-{[(5-Chloro-2-thienyl)sulfonyl]amino}-4-(methyloxy)-1H-indazol-1-yl]methyl}phenyl)methyl]-3-morpholinecarboxamide hydrochloride] | 3.98 to 15.8 | ≤ 126
